One may read the pIC50 as the IC50 on a negative log10 scale, so that one unit is a factor of ten.

pIC50: −log10 of the molar value.

The subject of the assay is human colon tumour cell line HT29. The experiment in a line: Cellular Assay (phosphohistone H3 Ser10 mitotic marker, HT29). It counts as cell-based. To be noted: HT-29, 24 h, HT29 cells, read-out: IC50 (cellular assay, phosphohistone H3).
Description: Chromosome condensation in mitosis is accompanied by phosphorylation of histone H3 on serine 10.
After 24 hours, cells were fixed in 3.7% (v/v) formaldehyde then permeabilised and blocked for 10 minutes in 100 μl 0.5% (v/v) Triton X-100, 1% (w/v) bovine serum albumin (BSA) in phosphate buffered saline (PBS). […] The raw assay data were analysed by non-linear regression analysis and used to determine an IC50 value for each compound.
Consider `CN1CCC(NC(=O)c2cc(F)c(Nc3ncc4c(n3)N(C3CCCC3)CC(C)(C)C(=O)N4C)cc2F)CC1` [Example 356, 4-[(2-cyclopentyl-4,4,6-trimethyl-5-oxo-2,6,9,11-tetrazabicyclo[5.4.0]undeca-7,9,11-trien-10-yl)amino]-2,5-difluoro-N-(1-methyl-4-piperidyl)benzamide], for which the negative logarithm of the IC50 (pIC50) was more than 6.52. Next, `COc1cc(C(=O)NCCCN(C)C)ccc1Nc1ncc2c(n1)N(C1CCCC1)CC(C)(C)C(=O)N2C` [Example 357, 4-[(2-cyclopentyl-4,4,6-trimethyl-5-oxo-2,6,9,11-tetrazabicyclo[5.4.0]undeca-7,9,11-trien-10-yl)amino]-N-(3-dimethylaminopropyl)-3-methoxy-benzamide]: more than 6.52; `COc1cc(C(=O)NCCN2CCCC2)ccc1Nc1ncc2c(n1)N(C1CCCC1)CC(C)(C)C(=O)N2C` [Example 358, 4-[(2-cyclopentyl-4,4,6-trimethyl-5-oxo-2,6,9,11-tetrazabicyclo[5.4.0]undeca-7,9,11-trien-10-yl)amino]-3-methoxy-N-(2-pyrrolidin-1-ylethyl)benzamide]: more than 6.52. With `COc1cc(C(=O)NCCN(C)C)ccc1Nc1ncc2c(n1)N(C1CCCC1)CC(C)(C)C(=O)N2C` [Example 359, 4-[(2-cyclopentyl-4,4,6-trimethyl-5-oxo-2,6,9,11-tetrazabicyclo[5.4.0]undeca-7,9,11-trien-10-yl)amino]-N-(2-dimethylaminoethyl)-3-methoxy-benzamide] the figure was more than 6.52.

Turning to `COc1cc(C(=O)NC2CCC(N3CCCC3)CC2)ccc1Nc1ncc2c(n1)N(C1CCCC1)CC(C)(C)C(=O)N2C` (stereo not shown) [Example 360, 4-[(2-cyclopentyl-4,4,6-trimethyl-5-oxo-2,6,9,11-tetrazabicyclo[5.4.0]undeca-7,9,11-trien-10-yl)amino]-3-methoxy-N-(4-pyrrolidin-1-ylcyclohexyl)benzamide], the pIC50 was more than 6.52. For `COc1cc(C(=O)NC2CCN(C)CC2)c(F)cc1Nc1ncc2c(n1)N(C1CCCC1)CC(C)(C)C(=O)N2C` [Example 361, 4-[(2-cyclopentyl-4,4,6-trimethyl-5-oxo-2,6,9,11-tetrazabicyclo[5.4.0]undeca-7,9,11-trien-10-yl)amino]-2-fluoro-5-methoxy-N-(1-methyl-4-piperidyl)benzamide], the pIC50 was more than 6.52. With `CN(C)CCCNC(=O)c1ccc(Nc2ncc3c(n2)N(C2CCCC2)CC(C)(C)C(=O)N3C)c(Cl)c1` [Example 362, 3-chloro-4-[(2-cyclopentyl-4,4,6-trimethyl-5-oxo-2,6,9,11-tetrazabicyclo[5.4.0]undeca-7,9,11-trien-10-yl)amino]-N-(3-dimethylaminopropyl)benzamide] the figure was more than 6.52; with `COc1cc(C(=O)NC2CCC(N(C)C)CC2)ccc1Nc1ncc2c(n1)N(C1CCCC1)CC(C)(C)C(=O)N2C` (stereo not shown) [Example 363, 4-[(2-cyclopentyl-4,4,6-trimethyl-5-oxo-2,6,9,11-tetrazabicyclo[5.4.0]undeca-7,9,11-trien-10-yl)amino]-N-(4-dimethylaminocyclohexyl)-3-methoxy-benzamide], more than 6.52; with `COc1cc(C(=O)N[C@@H]2CCN(C)C2)c(F)cc1Nc1ncc2c(n1)N(C1CCCC1)CC(C)(C)C(=O)N2C` [Example 364, 4-[(2-cyclopentyl-4,4,6-trimethyl-5-oxo-2,6,9,11-tetrazabicyclo[5.4.0]undeca-7,9,11-trien-10-yl)amino]-2-fluoro-5-methoxy-N-[(3R)-1-methylpyrrolidin-3-yl]benzamide], more than 6.52. Next, `CN1C(=O)C(C)(C)CN(C2CCCC2)c2nc(Nc3cc(F)c(C(=O)NC4CCC(N(C)C)CC4)cc3Cl)ncc21` (stereo not shown) [Example 366, 5-chloro-4-[(2-cyclopentyl-4,4,6-trimethyl-5-oxo-2,6,9,11-tetrazabicyclo[5.4.0]undeca-7,9,11-trien-10-yl)amino]-N-(4-dimethylaminocyclohexyl)-2-fluoro-benzamide]: more than 6.52. Regarding `CN1C(=O)C(C)(C)CN(C2CCCC2)c2nc(Nc3ccc(C(=O)NCC(C)(C)CN4CCCC4)cc3Cl)ncc21` [Example 367, 3-chloro-4-[(2-cyclopentyl-4,4,6-trimethyl-5-oxo-2,6,9,11-tetrazabicyclo[5.4.0]undeca-7,9,11-trien-10-yl)amino]-N-(2,2-dimethyl-3-pyrrolidin-1-yl-propyl)benzamide], the pIC50 is more than 6.52. With `COc1cc(C(=O)NCC(C)(C)CN2CCCC2)ccc1Nc1ncc2c(n1)N(C1CCCC1)CC(C)(C)C(=O)N2C` [Example 368, 4-[(2-cyclopentyl-4,4,6-trimethyl-5-oxo-2,6,9,11-tetrazabicyclo[5.4.0]undeca-7,9,11-trien-10-yl)amino]-N-(2,2-dimethyl-3-pyrrolidin-1-yl-propyl)-3-methoxy-benzamide] the figure was more than 6.52. With `CCN1CC[C@@H](NC(=O)c2ccc(Nc3ncc4c(n3)N(C3CCCC3)CC(C)(C)C(=O)N4C)c(OC)c2)C1` [Example 369, 4-[(2-cyclopentyl-4,4,6-trimethyl-5-oxo-2,6,9,11-tetrazabicyclo[5.4.0]undeca-7,9,11-trien-10-yl)amino]-N-[(3R)-1-ethylpyrrolidin-3-yl]-3-methoxy-benzamide] the figure was more than 6.52; with `COc1cc(C(=O)NC2CCC(N(C)C)CC2)c(F)cc1Nc1ncc2c(n1)N(C1CCCC1)CC(C)(C)C(=O)N2C` (stereo not shown) [Example 372, 4-[(2-cyclopentyl-4,4,6-trimethyl-5-oxo-2,6,9,11-tetrazabicyclo[5.4.0]undeca-7,9,11-trien-10-yl)amino]-N-(4-dimethylaminocyclohexyl)-2-fluoro-5-methoxy-benzamide], more than 6.52. Next, `COc1cc(C(=O)NC2CCC(N3CCC3)CC2)ccc1Nc1ncc2c(n1)N(C1CCCC1)CC(C)(C)C(=O)N2C` (stereo not shown) [Example 374, N-[4-(azetidin-1-yl)cyclohexyl]-4-[(2-cyclopentyl-4,4,6-trimethyl-5-oxo-2,6,9,11-tetrazabicyclo[5.4.0]undeca-7,9,11-trien-10-yl)amino]-3-methoxy-benzamide]: more than 6.52. Take `CCC1(CC)CN(C2CCCC2)c2nc(Nc3ccc(C(=O)NCC(C)(C)CN4CCCC4)cc3OC)ncc2N(C)C1=O` [Example 376, 4-[(2-cyclopentyl-4,4-diethyl-6-methyl-5-oxo-2,6,9,11-tetrazabicyclo[5.4.0]undeca-7,9,11-trien-10-yl)amino]-N-(2,2-dimethyl-3-pyrrolidin-1-yl-propyl)-3-methoxy-benzamide]: the pIC50 was more than 6.52.

For `CCN1CCC(NC(=O)c2cc(OC)c(Nc3ncc4c(n3)N(C3CCCC3)CC(CC)(CC)C(=O)N4C)cc2F)CC1` [Example 379, 4-[(2-cyclopentyl-4,4-diethyl-6-methyl-5-oxo-2,6,9,11-tetrazabicyclo[5.4.0]undeca-7,9,11-trien-10-yl)amino]-N-(1-ethyl-4-piperidyl)-2-fluoro-5-methoxy-benzamide], the pIC50 is more than 6.52. Next, `CCC1(CC)CN(C2CCCC2)c2nc(Nc3ccc(C(=O)NC4CCN(C)CC4)cc3OC)ncc2N(C)C1=O` [Example 380, 4-[(2-cyclopentyl-4,4-diethyl-6-methyl-5-oxo-2,6,9,11-tetrazabicyclo[5.4.0]undeca-7,9,11-trien-10-yl)amino]-3-methoxy-N-(1-methyl-4-piperidyl)benzamide]: more than 6.52; `COc1cc(C(=O)NCCN2CCCC2)ccc1Nc1ncc2c(n1)N(C1CCCC1)CC1(CC1)C(=O)N2C` [Example 384, 4-(9′-cyclopentyl-5′-methyl-6′-oxo-5′,6′,8′,9′-tetrahydrospiro[cyclopropane-1,7′-pyrimido[5,4-b][1,4]diazepine]-2′-ylamino)-3-methoxy-N-(2-pyrrolidin-1-ylethyl)benzamide]: more than 6.52; `CN1C(=O)C2(CC2)CN(C2CCCC2)c2nc(Nc3ccc(C(=O)NC4C[C@H]5CCC[C@@H](C4)N5C)cc3F)ncc21` (stereo partly drawn) [Example 388, 4-(9′-cyclopentyl-5′-methyl-6′-oxo-5′,6′,8′,9′-tetrahydrospiro[cyclopropane-1,7′-pyrimido[5,4-b][1,4]diazepine]-2′-ylamino)-3-fluoro-N-[(1S,5R)-9-methyl-9-azabicyclo[3.3.1]non-7-yl]benzamide]: more than 6.52.

Take `CN1CCC(NC(=O)c2cc(Cl)c(Nc3ncc4c(n3)N(C3CCCC3)CC3(CC3)C(=O)N4C)cc2F)CC1` [Example 389, 5-chloro-4-(9′-cyclopentyl-5′-methyl-6′-oxo-5′,6′,8′,9′-tetrahydrospiro[cyclopropane-1,7′-pyrimido[5,4-b][1,4]diazepine]-2′-ylamino)-2-fluoro-N-(1-methyl-4-piperidyl)benzamide]: the pIC50 was more than 6.52. Turning to `CN(C)CCNC(=O)c1ccc(Nc2ncc3c(n2)N(C2CCCC2)CC2(CC2)C(=O)N3C)c(Cl)c1` [Example 390, 3-chloro-4-(9′-cyclopentyl-5′-methyl-6′-oxo-5′,6′,8′,9′-tetrahydrospiro[cyclopropane-1,7′-pyrimido[5,4-b][1,4]diazepine]-2′-ylamino)-N-(2-dimethylaminoethyl)benzamide], the pIC50 is more than 6.00. As to `CN1C(=O)C2(CC2)CN(C2CCCC2)c2nc(Nc3ccc(C(=O)NCCN4CCCC4)cc3Cl)ncc21` [Example 391, 3-chloro-4-(9′-cyclopentyl-5′-methyl-6′-oxo-5′,6′,8′,9′-tetrahydrospiro[cyclopropane-1,7′-pyrimido[5,4-b][1,4]diazepine]-2′-ylamino)-N-(2-pyrrolidin-1-ylethyl)benzamide], the pIC50 was more than 6.52. With `CN(C)CC(C)(C)CNC(=O)c1ccc(Nc2ncc3c(n2)N(C2CCCC2)CC2(CC2)C(=O)N3C)c(Cl)c1` [Example 392, 3-chloro-4-(9′-cyclopentyl-5′-methyl-6′-oxo-5′,6′,8′,9′-tetrahydrospiro[cyclopropane-1,7′-pyrimido[5,4-b][1,4]diazepine]-2′-ylamino)-N-(3-dimethylamino-2,2-dimethyl-propyl)benzamide], the pIC50 is more than 6.52. With `CCN1CCC(NC(=O)c2cc(Cl)c(Nc3ncc4c(n3)N(C3CCCC3)CC3(CC3)C(=O)N4C)cc2F)CC1` [Example 393, 5-chloro-4-(9′-cyclopentyl-5′-methyl-6′-oxo-5′,6′,8′,9′-tetrahydrospiro[cyclopropane-1,7′-pyrimido[5,4-b][1,4]diazepine]-2′-ylamino)-N-(1-ethyl-4-piperidyl)-2-fluoro-benzamide] the figure was more than 6.52.

The record behind these values is patent publication US7709471B2, “Compounds” (AstraZeneca AB, priority 2006, dated 2010).
